# From US11214803B2, “Modulators of YAP1 expression” (Ionis Pharmaceuticals, Inc., priority 2019, dated 2022)
# Columns and labels:
# [1] = Cynomolgus monkey tolerability, hematology (Example 34); format: in vivo, cynomolgus monkeys; settings: for BAS / EOS / HCT / HGB / LUC / LYM / MCH / MCHC / MCV / MON / NEU / PLT / RBC / RCDW / Retic / WBC: cynomolgus monkey, in vivo, sc, 35 mg/kg; for MPV: cynomolgus monkeys, 35 mg/kg subcutaneously, day 44
# Experimental: To evaluate any effect of Ionis oligonucleotides in cynomolgus monkeys on hematologic parameters, blood samples of approximately 0.5 mL of blood was collected from each of the available study animals on day 44. The samples were collected in tubes containing K2-EDTA. Samples were analyzed for red blood cell (RBC) count, Hemoglobin (HGB), Hematocrit (HCT), Mean corpuscular volume (MCV), mean corpuscular hemoglobin (MCH), mean corpuscular hemoglobin concentration (MCHC), RBC Distribution Width (RCDW), reticulocyte count (Retic), platelet count (PLT), mean platelet volume (MPV), white blood cells (WBC) count, individual white blood cell counts, such as that of monocytes (MON), neutrophils (NEU), lymphocytes (LYM), eosinophils (EOS), basophils (BAS), and large unstained cells (LUC) using an ADVIA2120i hematology analyzer (Siemens, USA).
# [2] = Tolerability in CD-1 mice, plasma chemistry markers (Example 19); format: in vivo; settings: male CD-1 mice, 50 mg/kg s.c. twice a week for four weeks (8 treatments), day 26
# Experimental: CD-1 mice were treated with modified oligonucleotides selected from studies described above and evaluated for changes in the levels of various plasma chemistry markers.
# Groups of four male CD-1 mice at 4-6 weeks of age (obtained from Charles River) were injected subcutaneously twice a week for four weeks (for a total of 8 treatments) with 50 mg/kg of modified oligonucleotides. One group of male CD-1 mice was injected with PBS. Mice were euthanized on day 26 post start of treatment (24 hrs following the final administration).
Substance,BAS [1] [%],EOS [1] [%],HCT [1] [%],HGB [1] [g/dL],LUC [1] [%],LYM [1] [%],MCH [1] [pg],MCHC [1] [g/dL],MCV [1] [fL],MON [1] [%],NEU [1] [%],PLT [1],RBC [1] [µL⁻¹],RCDW [1] [%],Retic [1] [%],WBC [1] [µL⁻¹],MPV [1] [fL],further results
"1076453 (GTAATATTGCAATCTG; 3-10-3 cEt gapmer, further chemistry not given here) [compound 1076453]",0.4,1.1,43,13,1.2,54,23,29,79,3.9,39,358 10^3/μL,5.5e+06,15,1.2,10000,8.4,–
"1197270 (TTAAAGTGTATGTCAG; cEt gapmer with 2'-OMe nucleoside, phosphorothioate, further chemistry not given here) [compound 1197270]",0.4,2.7,44,12,1.2,54,22,28,79,3.5,38,452 10^3/μL,5.6e+06,12,1.1,10600,7.1,–
"1198439 (AGTGTATGTCAGAAGA; sugar, 5-methylcytosine, phosphorothioate modifications, further chemistry not given here) [compound 1198439]",0.3,1.5,48,14,0.6,68,22,28,79,2.9,27,367 10^3/μL,6e+06,12,1.2,10300,7.6,ALT [2]: 210 U/L; AST [2]: 219 U/L; BUN [2]: 18 mg/dL; TBIL [2]: 0.25 mg/dL
"958499 (ATTAGAGTATGTGGCA; 3-10-3 cEt gapmer, further chemistry not given here) [compound 958499]",0.4,1.1,43,12,1.2,44,22,29,77,3.5,49,399 10^3/μL,5.6e+06,12,1.5,12000,7.6,–
"1198728 (TATTAGAGTATGTGGC; modified gapmer, further chemistry not given here) [compound 1198728]",0.5,2.2,47,14,0.9,64,23,29,80,2.9,29,428 10^3/μL,5.9e+06,12,1.3,10700,8.0,–
"1198605 (GTAATATTGCAATCTG; modified gapmer, further chemistry not given here) [compound 1198605]",0.4,0.8,46,13,0.5,51,22,29,75,2.8,44,385 10^3/μL,6.1e+06,13,1.1,10500,8.1,–
"1198623 (CTAAGTAAGGTTTCCC; modified gapmer, further chemistry not given here) [compound 1198623]",0.4,0.8,46,14,0.7,53,23,30,78,2.0,43,376 10^3/μL,5.9e+06,13,1.0,11700,7.8,–
"1198831 (CACTTTTACATTAGGA; chemically modified gapmer, further chemistry not given here) [compound 1198831]",0.3,2.0,43,13,0.8,50,23,30,76,3.3,44,377 10^3/μL,5.6e+06,12,1.0,7600,7.3,–
"1198872 (TGTATGTCAGAAGAGT; chemically modified gapmer, further chemistry not given here) [compound 1198872]",0.3,0.6,44,13,0.5,32,23,30,78,2.2,64,400 10^3/μL,5.7e+06,12,1.2,10400,7.1,ALT [2]: 192 U/L; AST [2]: 207 U/L; BUN [2]: 22 mg/dL; TBIL [2]: 0.25 mg/dL
